The results in this text go back to patent US11021481B2, “Substituted isoindolin-1-ones and 2,3-dihydro-1h-pyrrolo[3,4-c]pyridin-1-ones as HPK1 antagonists” (Nimbus Saturn, Inc., priority 2019, dated 2021).

Where a name gives a salt, the structure may show the parent alone.

Chain of HPK1 (Q92918 whole entry): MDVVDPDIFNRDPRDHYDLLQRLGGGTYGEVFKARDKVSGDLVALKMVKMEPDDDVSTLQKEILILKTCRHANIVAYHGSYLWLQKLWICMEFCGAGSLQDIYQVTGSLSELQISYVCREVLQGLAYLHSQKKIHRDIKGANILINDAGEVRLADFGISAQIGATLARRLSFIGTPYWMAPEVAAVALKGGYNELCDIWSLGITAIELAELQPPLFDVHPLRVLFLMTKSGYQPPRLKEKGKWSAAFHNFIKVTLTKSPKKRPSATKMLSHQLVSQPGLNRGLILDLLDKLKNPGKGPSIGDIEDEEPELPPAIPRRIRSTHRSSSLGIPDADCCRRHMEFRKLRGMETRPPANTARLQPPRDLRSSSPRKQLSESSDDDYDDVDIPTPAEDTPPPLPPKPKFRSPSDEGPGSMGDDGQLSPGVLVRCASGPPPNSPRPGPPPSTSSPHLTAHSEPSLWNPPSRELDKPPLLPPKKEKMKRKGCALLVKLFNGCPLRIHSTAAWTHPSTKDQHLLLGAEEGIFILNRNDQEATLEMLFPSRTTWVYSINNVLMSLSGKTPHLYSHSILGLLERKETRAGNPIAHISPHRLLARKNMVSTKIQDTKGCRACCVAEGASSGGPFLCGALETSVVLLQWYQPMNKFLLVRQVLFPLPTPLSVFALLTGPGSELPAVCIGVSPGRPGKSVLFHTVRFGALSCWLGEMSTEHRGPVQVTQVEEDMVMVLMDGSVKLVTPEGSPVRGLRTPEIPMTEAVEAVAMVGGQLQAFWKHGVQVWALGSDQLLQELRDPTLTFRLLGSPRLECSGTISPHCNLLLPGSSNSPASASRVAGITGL

The target in this experiment is HPK1 (Homo sapiens (Human), UniProt Q92918). Nature of the experiment: HPK1 biochemical enzyme assay (microfluidic mobility shift assay). To be noted: 1.5 nM HPK1, ATP 1 mM final, 30 min preincubation, 60 min at RT, Caliper EZ Reader; read-out: HPK1 1000UMATP caliper IC50. An outline of the steps:
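Ten-point compound titrations (top 3 μM final) preincubated 30 min with HPK1 and substrate, then reaction started with 1 mM ATP and 1 μM substrate, 5 mM MgCl2. After 60 min at RT, reaction terminated and product measured by microfluidic mobility shift.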
As to `CN(C)Cc1nc(Nc2ccc(-c3cnc4cc(F)ccn34)c3c2C(=O)NC3)ccc1N1CCC(C)(O)CC1` [I-535, 7-[[6-[(dimethylamino)-methyl]-5-(4-hydroxy-4-methyl-1-piperidyl)-2-pyridyl]amino]-4-(7-fluoroimidazo [1,2-a]pyridin-3-yl)isoindolin-1-one Formic acid salt], the IC50 is < 100 nM.
Consider `CN(C)C1CCCc2ccc(Nc3ccc(-c4cnc5cc(F)ccn45)c4c3C(=O)NC4)nc21` (stereo not drawn) [I-536, 7-[[8-(dimethylami-no)-5,6,7,8-tetrahydroquin-olin-2-yl]amino]-4-(7-fluoroimidazo [1,2-a]pyridin-3-yl)isoindolin-1-one Formic acid salt], for which the IC50 is < 100 nM.
On to `Cc1cnn2c(-c3ccc(Nc4ccc([C@H]5CCOC5)c(CN(C)C)n4)c4c3CNC4=O)cnc2c1` [I-537, (R)-7-((6-((dimethylamino)-methyl)-5-(tetrahydrofuran-3-yl)pyridin-2-yl)amino)-4-(7-methylimidazo [1,2-b]pyridazin-3-yl)isoindolin-1-one], for which the IC50 is < 100 nM.
To `Cc1cnn2c(-c3ccc(Nc4ccc([C@@H]5CCOC5)c(CN(C)C)n4)c4c3CNC4=O)cnc2c1` [I-538, (S)-7-((6-((dimethylamino)-methyl)-5-(tetrahydrofuran-3-yl)pyridin-2-yl)amino)-4-(7-methylimidazo [1,2-b]pyridazin-3-yl)isoindolin-1-one] belongs < 100 nM; to `CN(C)Cc1nc(Nc2ccc(-c3cnc4cc(F)ccn34)c3c2C(=O)NC3)ccc1O[C@H]1CCOC1` [I-544, 7-[[6-[(dimethylamino)-methyl]-5-[(3S)-tetrahydrofuran-3-yl]oxy-2-pyridyl]amino]-4-(7-fluoroimidazo [1,2-a]pyridin-3-yl)isoindolin-1-one], < 100 nM.
In the case of `CN(C)Cc1nc(Nc2ccc(-c3ccnc4c3ccn4C)c3c2C(=O)NC3)ccc1[C@@H]1CCOC1` [I-545, (S)-7-((6-((dimethylamino)-methyl)-5-(tetrahydrofuran-3-yl)pyridin-2-yl)amino)-4-(1-methyl-1H-pyrrolo[2,3-b]pyridin-4-yl)isoindolin-1-one], the IC50 was < 100 nM.
As to `CN(C)Cc1nc(Nc2ccc(-c3ccnc4c3ccn4C)c3c2C(=O)NC3)ccc1[C@H]1CCOC1` [I-546, (R)-7-((6-((dimethylamino)-methyl)-5-(tetrahydrofuran-3-yl)pyridin-2-yl)amino)-4-(1-methyl-1H-pyrrolo[2,3-b]pyridin-4-yl)isoindolin-1-one], the IC50 is < 100 nM.
Under `CN(C)Cc1nc(Nc2cnc(-c3cccc4c3ccn4C)c3c2C(=O)NC3)ccc1[C@H]1CCOC1` [I-547, (R)-7-((6-((dimethylamino)-methyl)-5-(tetrahydrofuran-3-yl)pyridin-2-yl)amino)-4-(1-methyl-1H-indol-4-yl)-2,3-dihydro-1H-pyrrolo[3,4-c]pyridin-1-one] stands < 100 nM.
Under `COC1CN(Cc2nc(Nc3ccc(-c4cnc5cc(F)ccn45)c4c3C(=O)NC4)ccc2[C@H]2CCOC2)C1` [I-548, (R)-4-(7-fluoroimidazo [1,2-a]pyridin-3-yl)-7-((6-((3-methoxyazet-idin-1-yl)methyl)-5-(tetrahydrofuran-3-yl)pyridin-2-yl)amiiio)isoin-dolin-1-one] stands < 100 nM; under `COC1CN(Cc2nc(Nc3ccc(-c4cnc5cc(F)ccn45)c4c3C(=O)NC4)ccc2[C@@H]2CCOC2)C1` [I-549, (S)-4-(7-fluoroimidazo [1,2-a]pyridin-3-yl)-7-((6-((3-methoxyaze-tidin-1-yl)methyl)-5-(tetrahydrofuran-3-yl)pyridin-2-yl)amino)isoin-dolin-1-one], < 100 nM; under `CN(C)Cc1nc(Nc2ccc(-c3cnc4cc(F)ccn34)c3c2C(=O)NC3)ccc1[C@H]1CCCOC1` [I-550], < 100 nM.
Turning to `CN(C)Cc1nc(Nc2ccc(-c3cnc4cc(F)ccn34)c3c2C(=O)NC3)ccc1[C@@H]1CCCOC1` [I-551], the IC50 was < 100 nM.
To `CN(C)Cc1nc(Nc2ccc(-c3cnc4cc(F)ccn34)c3c2C(=O)NC3)ccc1OC1CCOCC1` [I-553, 7-[[6-[(dimethylamino)-methyl]-5-tetrahydropy-ran-4-yloxy-2-pyridyl]amino]-4-(7-fluoroimidazo [1,2-a]pyridin-3-yl)isoindolin-1-one] belongs < 100 nM; to `CN(C)Cc1nc(Nc2ccc(-c3cnc4cc(F)ccn34)c3c2C(=O)NC3)ccc1[C@H]1CCCO1` [I-554, (R)-7-((6-((dimethylamino)-methyl)-5-(tetrahydrofuran-2-yl)pyridin-2-yl)amino)-4-(7-fluoroimidazo [1,2-a]pyridin-3-yl)isoindolin-1-one], < 100 nM.
Consider `CN(C)Cc1nc(Nc2ccc(-c3cnc4cc(F)ccn34)c3c2C(=O)NC3)ccc1N1CC[C@H](O)C1` [I-555], for which the IC50 was < 100 nM.
Consider `CN(C)Cc1nc(Nc2ccc(-c3cnc4cc(F)ccn34)c3c2C(=O)NC3)ccc1[C@H]1CCN(C)C(=O)C1` [I-556, (S)-7-((6-((dimethylamino)-methyl)-5-(1-methyl-2-oxopiperidin-4-yl)pyridin-2-yl)amino)-4-(7-fluoroimidazo [1,2-a]pyridin-3-yl)isoindolin-1-one], for which the IC50 is < 100 nM.
As to `CN(C)Cc1nc(Nc2ccc(-c3cnc4cc(F)ccn34)c3c2C(=O)NC3)ccc1[C@@H]1CCN(C)C(=O)C1` [I-557, (R)-7-((6-((dimethylamino)-methyl)-5-(1-methyl-2-oxopiperidin-4-yl)pyridin-2-yl)amino)-4-(7-fluoroimidazo [1,2-a]pyridin-3-yl)isoindolin-1-one], the IC50 was < 100 nM.
`CC(C)NCc1nc(Nc2ccc(-c3cnc4cc(F)ccn34)c3c2C(=O)NC3)ccc1[C@@H]1CCOC1` [I-558]: the IC50 is < 100 nM.
With `CC(C)NCc1nc(Nc2ccc(-c3cnc4cc(F)ccn34)c3c2C(=O)NC3)ccc1[C@H]1CCOC1` [I-559, (R)-4-(7-fluoroimidazo [1,2-a]pyridin-3-yl)-7-((6-((isopropylamino)-methyl)-5-(tetrahydrofuran-3-yl)pyridin-2-yl)amino)isoin-dolin-1-one], the IC50 was < 100 nM.
As to `CN(C)Cc1nc(Nc2ccc(-c3cnc4cc(F)ccn34)c3c2C(=O)NC3)ccc1[C@@H]1CCCO1` [I-560, (S)-7-((6-((dimethylamino)-methyl)-5-(tetrahydrofuran-2-yl)pyridin-2-yl)amino)-4-(7-fluoroimidazo [1,2-a]pyridin-3-yl)isoindolin-1-one], the IC50 is < 100 nM.
Regarding `CN(C)C(C)(C)C1CN(c2ccc(Nc3ccc(-c4cnc5cc(F)ccn45)c4c3C(=O)NC4)nc2)CCO1` (stereo not drawn) [I-564, 7-((5-(2-(2-(dimethylami-no)propan-2-yl)morpholino)pyridin-2-yl)amino)-4-(7-fluoroimidazo [1,2-a]pyridin-3-yl)isoindolin-1-one], the IC50 was < 100 nM.
Regarding `O=C1NCc2c(-c3ccnn4ccnc34)ncc(Nc3ccc(N4CCC(O)CC4)cn3)c21` [I-565, 7-((5-(4-hydroxypiperidin-1-yl)pyridin-2-yl)amino)-4-(imidazo[1,2-b]pyridazin-8-yl)-2,3-dihydro-1H-pyrrolo[3,4-c]pyridin-1-one], the half-inhibitory concentration (IC50) is > 1000 nM.
In the case of `Cn1nc(Nc2ccc(-c3cnc4cc(F)ccn34)c3c2C(=O)NC3)cc1C1(O)CCOCC1` [I-566, 4-(7-fluoroimidazo [1,2-a]pyridin-3-yl)-7-((5-(4-hydroxytetrah-ydro-2H-pyran-4-yl)-1-methyl-1H-pyrazol-3-yl)amino)isoin-dolin-1-one], the IC50 was < 100 nM.
To `CN(C)C[C@]1(O)CCCN(c2ccc(Nc3ccc(-c4cnc5cc(F)ccn45)c4c3C(=O)NC4)nc2)C1` [I-567, (R)-7-((5-(3-((dimethylamino)-methyl)-3-hydroxypiperidin-1-yl)pyridin-2-yl)amino)-4-(7-fluoroimidazo [1,2-a]pyridin-3-yl)isoindolin-1-one] belongs < 100 nM; to `CN(C)C[C@@]1(O)CCCN(c2ccc(Nc3ccc(-c4cnc5cc(F)ccn45)c4c3C(=O)NC4)nc2)C1` [I-568, (S)-7-((5-(3-((dimethylamino)-methyl)-3-hydroxypiperidin-1-yl)pyridin-2-yl)amino)-4-(7-fluoroimidazo [1,2-a]pyridin-3-yl)isoindolin-1-one], < 100 nM; to `CO[C@H]1CC[C@H](CO)N(c2ccc(Nc3ccc(-c4cnn5c4CCCC5)c4c3C(=O)NC4)nc2)C1` [I-571, 7-((5-((2R,5S)-2-(hydroxymeth-yl)-5-methoxy-piperidin-1-yl)pyridin-2-yl)amino)-4-(4,5,6,7-tetrahydropyra-zolo[1,5-a]pyridin-3-yl)isoindolin-1-one], < 100 nM.
`CN1CCC(C)(c2cccc(Nc3cnc(-c4ccnc5c4ccn5C)c4c3C(=O)NC4)n2)CC1` [I-575, 7-((6-(l,4-dimethyl-piperidin-4-yl)pyridin-2-yl)amino)-4-(1-methyl-1H-pyrrolo[2,3-b]pyridin-4-yl)-2,3-dihydro-1H-pyrrolo[3,4-c]pyridin-1-one]: the IC50 lay in the range of 100 to 1000 nM.
Consider `COC[C@@H]1CN(c2ccc(Nc3ccc(-c4cnc5c(F)c(C)ccn45)c4c3C(=O)NC4)nc2)CCO1` [I-579, (S)-4-(8-fluoro-7-methylimidazo [1,2-a]pyridin-3-yl)-7-((5-(2-(methoxymeth-yl)morpho-lino)pyridin-2-yl)amino)isoin-dolin-1-one], for which the IC50 is < 100 nM.
In the case of `COC[C@H]1CN(c2ccc(Nc3ccc(-c4cnc5c(F)c(C)ccn45)c4c3C(=O)NC4)nc2)CCO1` [I-580, (R)-4-(8-fluoro-7-methylimidazo [1,2-a]pyridin-3-yl)-7-((5-(2-(methoxymeth-yl)morpho-lino)pyridin-2-yl)amino)isoin-dolin-1-one], the IC50 was < 100 nM.
Take `CN(C)C(C)(C)C1CCCN(c2ccc(Nc3ccc(-c4cnc5cc(F)ccn45)c4c3C(=O)NC4)nc2)C1` (stereo not drawn) [I-582, 7-((5-(3-(2-(dimethylami-no)propan-2-yl)piperidin-1-yl)pyridin-2-yl)amino)-4-(7-fluoroimidazo [1,2-a]pyridin-3-yl)isoindolin-1-one]: the IC50 was < 100 nM.

As usually defined, the IC50 is the midpoint of a concentration-inhibition curve.
